Columns and labels:
BRD4 (BD1) = target: T1, BRD4 (BD1) (Homo sapiens, UniProt O60885); assay: BRD4 (BD1) bromodomain binding, HTRF; details: 2 h incubation at r.t.
T1 construct: Each member comprises two tandem bromodomains (BD1 and BD2) for recognizing the acetylated lysine residues

BRD4 (BD2) = target: T2, BRD4 (BD2) (Homo sapiens, UniProt O60885); assay: BRD4 (BD2) bromodomain binding, HTRF; details: 2 h incubation at r.t.
T2 construct: Each member comprises two tandem bromodomains (BD1 and BD2) for recognizing the acetylated lysine residues

MV-4-11 cells = assay: Inhibitory effect on MV-4-11 cells (CellTiter-Glo); format: cell-based; details: Homo sapiens, MV4-11; 72 hours, CellTiter-Glo; read-out: MV-4-11
Protocol: 2. The cells were transferred to a 15 mL centrifuge tube, after centrifuged at 1000 rpm for 5 min, the supernatant was discarded;
3. The complete medium (IMDM+10% FBS) was added, then blown and patted into single cell suspension, counted by Vi-cell cytometer, the cell suspension was adjusted to desired cell density by the complete medium.
4. The cells were inoculated into a 96 well plate, the cell number was 15000/well at 100 μL per well, 100 μL complete medium was added into the black control.
2. Intermediate plate areparation
6. XLfit was used for data processing. Inhibition rate %=(d−c)/(d−b)×100, while d is the signal value of the DMSO treated group, c is the signal value of the compound treated group, b is signal value of the blank control that only containing medium and DMSO without cells. The data was fitted using the f(x)205[fit=(A+((B−A)/(1+((C/x)^∧D))))] equation in the XLfit software.

SU-DHL-6 cells = assay: Inhibitory effect on SU-DHL-6 cells (CellTiter-Glo); format: cell-based; details: Homo sapiens; 72 hours, CellTiter-Glo; read-out: SU-DHL-6
Protocol: Determinations of the inhibition of the compounds from the above embodiments against SU-DHL-6 cells, the detailed operation steps are as followed:
The 1st Day: Seed the Cells on the Plate
1. The cells were verified that they were in good conditions by observation under microscope;
2. The cells were transferred to a centrifuge tubes, after centrifuged at 1000 rpm for 5 min, the supernatant was discarded;
3. The complete substrate (1640+10% FBS) was added, then blown and patted into single cell suspension, counted by Vi-cell cytometer, the cell suspension was adjusted to desired cell density by the complete medium.
4. The cells were inoculated into a 96 well plate, the cell number was 12000/well at 100 μL per well, 100 μL complete medium was added into the black control;
5. 37° C., 5% CO2 culture overnight.
The 2nd Day: Addition of the Drugs
1. 1000× Compound Plate Preparation
1.1. The test compound was prepared into 10 mM working solution by using DMSO. Then the STS was prepared into 2 mM working solution by using DMSO.
1.2. In the round bottom 96 wells plate, the column 2 of row A to H was added into 60 μL 10 mM test compound (or STS) working solution, columns 3-11 were added into 40 μL DMSO, 20 μL drug solution was pipetted from the column 2 to the column 3, blown and patted for a homogeneous mixture; then 20 μL solution was pipetted from the column 3 to the column 4, blown and patted for a homogeneous mixture, sequently, the drug was diluted by 3 times, 10 concentrations in total. The columns 1 and 12 were supplemented with 40 μL of DMSO.
2. Intermediate plate preparation
A sterile V-bottom 96 deep well plate was used and in each well, 495 μL FBS-free PRMI 1640 medium was added, then 5 μL of the diluted compound (or DMSO) in the 1000× compound plate was pipetted into corresponding position of the V-bottom 96 well plate, blown and patted evenly.
3.1. The cell plate was taken out from the incubator and was observed under microscope. The diluted compound or DMSO in the intermediate plate was added into the cell plate, 11 μL each well.
3.2. The cell was continued to be cultured at 37° C., 5% CO2 for 72 hours.
The 5th Day: CellTiter-Glo Detection of the Cell Activity
1. The CellTiter-Glo buffer and the reaction substrate were taken out from the refrigerator, after balanced to r.t., the buffer was poured into a brown bottle containing the substrate, the bottle was upside down to have the substrate powder sufficientaly dissolved.
2. The cell was observed under microscope; the cell plate was balanced to r.t.
3. The prepared CellTiter-Glo was added into the 96 well plate, at 100 μL/well.
4. The cell plate was placed on a shaker for 10 min, followed by standing at r.t. for 10 min.
5. A white seal film was attached to the bottom of the well plate, and the chemiluminescence signal of each well was detected by the Enspire microplate detector.
6. XLfit was used for data processing. Inhibition rate %=(d-c)/(d-b)×100, while d is the signal value of the DMSO treated group, c is the signal value of the compound treated group, b is signal value of the blank control that only containing medium and DMSO without cells. The data was fitted using the f (x)205[fit=(A+((B−A)/(1+((C/x)^∧D))))] equation in the XLfit software.

[1] = Metabolic stability in human liver microsomes; format: in vitro ADME; details: human liver microsomes 0.5 mg/mL, NADPH, 37° C.; for CLint scaled at 1 µM: pH 7.4, read-out: HLM_CLint
Protocol: (§1) Determinations of the metabolic stability of the compound from the above embodiments, the detailed operation steps are as followed:
(§2) 1. Preparation of buffer C:
(§3) Buffer A: 1.0 L of 0.1 M potassium dihydrogen phosphate buffer (containing 1.0 mM EDTA);
(§4) Buffer B: 1.0 L of 0.1 M dipotassium hydrogen phosphate buffer (containing 1.0 mM EDTA);
(§5) Buffer C: 500 mL Buffer B was titrated with Buffer A to pH 7.4.
(§6) 2. 10 mM stock solution preparation:
(§7) 10 mM test compound: A certain amount of the test compound was weighed and dissolved in DMSO.
(§8) 10 mM control: 5.455 mg of ketanserin dissolved in 1 mL DMSO.
(§9) 3. Preparation of the drug solution:
(§10) 500 μM solution: 5 μL of 10 mM stock solution (see step 2) was added into 95 μL ACN;
(§11) 1.5 μM dosing solution (dissolved in liver microsome solution):
(§12) 18.75 μL of 20 mg/mL liver microsomes was added into 479.75 μL of Buffer C, then 1.5 μL of 500 μM solution was added and mixed gently by shaking.
(§13) 4. Preparation of 6 mM NADPH solution:
(§14) 15 mg NADPH was weighted, then added into 3 mL of buffer C to prepare a 6 mM NADPH solution.
(§15) 5. 30 µL of 1.5 μM dosing solution (see step 3) was added into the wells of the 96-well plate set at different time points (0 minutes, 5 minutes, 15 minutes, 30 minutes, 45 minutes), number of dulplicate sample is 2.
(§16) 6. Preparation of a 0 minutes sample: 135 μL ACN (with internal standard) was added to the 0 minutes well, followed by 15 µL of 6 mM NADPH solution.
(§17) 7. The 96-well plate containing 1.5 μM dosing solution and NADPH solution were preheated in a 37° C. water bath for 5 minutes.
(§18) 8. The 15 µL of 6 mM NADPH solution preheated was added into the wells set to 5 minutes, 15 minutes, 30 minutes, 45 minutes, then the reaction was initiated and started counting the time.
(§19) 10. The sample was vortexed for 10 min, and then centrifuged for 15 minutes on a centrifuge (Thermo Multifuge×3R) using 5594×g.
(§20) 11. 50 μL of the supernatant was taken from the centrifuged sample, transferred to a 96-well sample plate to which 100 μL of ultrapure water had already been added, mixed, and finally sent to LC-MS/MS for analysis.
(§21) Half time (T1/2)=0.693/K (K is the rate constant obtained by linear regression of the logarithm of the concentration as vertical coordinates and the culturing time as the abscissa)
(§22) 2. According to the equation formula bellow, Excel was used to plot the compound content versus reaction time, as well as half life calculation (min)
(§23) Y=(Y0−Plateau)×e^(−K*X)+Plateau
(§24) Y0 represents the compound content at 0 minutes; Y represents the compound content; X represents the time point; K represents degration rate constant of the compound; Plateau represents the lowest possible content of the compound (defined herein as 0).

[2] = Metabolic stability in mouse liver microsomes; format: in vitro ADME; details: mouse liver microsomes 0.5 mg/mL, NADPH, 37° C.; for CLint scaled at 1 µM: pH 7.4, read-out: MLM_CLint
Protocol: as §1, §2, §3, §4, §5, §6, §7, §8, §9, §10, §11, §12, §13, §14, §15, §16, §17, §18, §19, §20, §21, §22, §23, §24

IC50 (BRD4 (BD1)) [nM]	IC50 (BRD4 (BD2)) [nM]	IC50 (MV-4-11 cells) [nM]	IC50 (SU-DHL-6 cells) [nM]	HLM_T1/2 [1] [min]	CLint scaled at 1 µM [1] [mL/min/kg]	MLM_T1/2 [2] [min]	CLint scaled at 1 µM [2] [mL/min/kg]	Structure (SMILES)
4	4	65	59	1127.52	1.54	1056.88	5.16	CCS(=O)(=O)Cc1ccc2c(c1)-c1cn(C)c(=O)cc1CN=C2c1ccc(Cl)cc1 [Compound 4011, 7-(4-chlorophenyl)-10-((ethylsulfone)methyl)-2-methyl-2,5-dihydro-3H-benzo[c]pyrido[3,4-e]Azazale-3-ketone]
26	47	1120	1930	38.19	45.5	23.42	233	Cn1cc2c(c1C(N)=O)CCN(c1ccc(F)cc1)c1ccc(CS(C)(=O)=O)cc1-2 [Compound 4002, 6-(4-fluorophenyl)-2-methyl-9-(methylsulfonylmethyl)-2,4,5,6-tetrahydrobenzo[b]pyrrolo[3,4-d]azepin-3-carboxamide]

Source: patent publication US20190284192A1, “NITROGENOUS MACROCYCLIC COMPOUND, PREPARATION METHOD THEREFOR, PHARMACEUTICAL COMPOSITION AND APPLICATION THEREOF” (LUOXIN PHARMACEUTICAL (SHANGHAI) CO., LTD., priority 2016, published 2019)
